Laboratory results reported in US20150291570A1, “Substituted N-(tetrazol-5-yl)- and N-(triazol-5-yl)arylcarboxamide compounds and their use as herbicides” (BASF SE, priority 2012, published 2015).

How the values were obtained:
Assay type in all cases: in vivo
[1] = system: Abutilon theophrasti (velvetleaf); assay: Greenhouse post-emergence treatment of Abutilon theophrasti; conditions: application rate 1000 g/ha, scale 0 (no damage) to 100 (complete destruction)
Excerpt: (§1) The seeds of the test plants were sown separately for each species. For the post-emergence treatment, the test plants were first grown to a height of 3 to 15 cm, depending on the plant habit, and only then treated with the active ingredients which had been suspended or emulsified in water. For this purpose, the test plants were either sown directly and grown in the same containers, or they were first grown separately as seedlings and transplanted into the test containers a few days prior to treatment. Depending on the species, the plants were kept at 10-25° C. or 20-35° C. The test period extended over 2 to 4 weeks. During this time, the plants were tended, and their response to the individual treatments was evaluated. Evaluation was carried out using a scale from 0 to 100. 100 means no emergence of the plants, or complete destruction of at least the aerial moieties, and 0 means no damage, or normal course of growth. A good herbicidal activity is given at values of at least 70 and a very good herbicidal activity is given at values of at least 85. The plants used in the greenhouse experiments belonged to the following species: [table]

[2] = system: Echinochloa crus-galli (barnyard grass); assay: Greenhouse post-emergence treatment of Echinochloa crus-galli; conditions: application rate 1000 g/ha, scale 0 to 100
Excerpt: as §1

[3] = system: Amaranthus retroflexus L. (pigweed); assay: Greenhouse pre-emergence treatment of Amaranthus retroflexus; conditions: application rate 1000 g/ha, scale 0 to 100
Excerpt: The seeds of the test plants were sown separately for each species. For the pre-emergence treatment, the active ingredients, which had been suspended or emulsified in water, were applied directly after sowing by means of finely distributing nozzles. The containers were irrigated gently to promote germination and growth and subsequently covered with transparent plastic hoods until the plants had rooted. This cover caused uniform germination of the test plants, unless this has been impaired by the active ingredients. Depending on the species, the plants were kept at 10-25° C. or 20-35° C. The test period extended over 2 to 4 weeks. During this time, the plants were tended, and their response to the individual treatments was evaluated. Evaluation was carried out using a scale from 0 to 100. 100 means no emergence of the plants, or complete destruction of at least the aerial moieties, and 0 means no damage, or normal course of growth. A good herbicidal activity is given at values of at least 70 and a very good herbicidal activity is given at values of at least 85. The plants used in the greenhouse experiments belonged to the following species: [table]

SMILES	damage [%] [1] [%]	damage [%] [2] [%]	damage [%] [3] [%]
CON=C1CCS(=O)(=O)c2ccc(C(=O)Nc3ncnn3C)c(C)c21 [I.A-47]	100	95	70
CON=C1CCS(=O)(=O)c2ccc(C(=O)Nc3nnnn3C)c(C)c21 [V.A-47]	100	100	100
